27 compounds from US20240101570A1 (AMGEN INC., priority 2020, published 2024) can be followed below.

In one assay the test system is HCT116 MTAP null cells. In words: HCT116 MTAP null cell proliferation / viability (CellTiter-Glo, 6 days). Type of assay: cell-based. To be noted: for IC50: HCT116-MTAP null, 144 h, HCT116 MTAP null cells, 6 days, CellTiter-Glo, read-out: HCT-116 MTAP null IC50. The method, boiled down: (§1)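 Viability read by CellTiter-Glo after 6-day compound exposure of MTAP-null and wild-type HCT116 cells grown in RPMI 1640 with 10% FBS. Dosing used 1:3 steps from 1 or 10 μM (8-9 points) or 1:2 steps from 10 or 50 μM (22 points); IC50 taken where fitted curve crosses 50% of control.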
Background: Cellular ATP, detected with luciferase, serves as a proxy for viable cell number.

For another assay, the system named is HCT116 WT cells. As to the kind of experiment: HCT116 WT cell proliferation / viability (CellTiter-Glo, 6 days). To be noted: Homo sapiens, HCT-116, 144 h, HCT116 WT cells, 6 days, CellTiter-Glo; read-out: HCT-116 WT IC50. It counts as cell-based. The method, boiled down: as §1

Bounds are passed on as bounds.

As a reminder, the IC50 is the concentration that gives 50% inhibition. Consider `CCOC1CC1N(Cc1ccc(C(F)(F)F)cn1)C(=O)c1ccc2nc(N)c3c(c2c1)COC3C` (stereo not shown) [Example 907, 4-amino-N-(2-ethoxycyclopropyl)-3-methyl-N-((5-(trifluoromethyl)pyridin-2-yl)methyl)-1,3-dihydrofuro[3,4-c]quinoline-8-carboxamide], for which the 50% inhibitory concentration (IC50) with HCT116 MTAP null cells was 40 nM; with HCT116 WT cells it was over 1000 nM.

In the case of `Cc1ccc(CN(C)C(=O)c2cc3c(cc2F)nc(N)c2cnn(C)c23)nc1` [Example 769, 4-amino-7-fluoro-N,1-dimethyl-N-((5-methyl-2-pyridinyl)methyl)-1H-pyrazolo[4,3-c]quinoline-8-carboxamide], the results for the IC50 in the assay with HCT116 MTAP null cells and in the assay with HCT116 WT cells were 115 nM and 7500 nM, respectively.

Regarding `CC(C)N(Cc1ccc(C2CC2)cn1)C(=O)c1ccc2nc(N)c3c(c2c1)CO[C@@H]3C` [Example 377, (3R)-4-amino-N-((5-cyclopropyl-2-pyridinyl)methyl)-3-methyl-N-(2-propanyl)-1,3-dihydrofuro[3,4-c]quinoline-8-carboxamide], the figures for the 50% inhibitory concentration (IC50) with HCT116 MTAP null cells and in the assay with HCT116 WT cells were 49 nM and 2060 nM, respectively.

Consider `C[C@H](c1ncccn1)N(Cc1ccc(C(F)(F)F)cn1)C(=O)c1cnc2nc(N)c3c(c2c1)CCC3` [Example 626, 6-amino-N-((1R)-1-(2-pyrimidinyl)ethyl)-N-((5-(trifluoromethyl)-2-pyridinyl)methyl)-8,9-dihydro-7H-cyclopenta[c][1,8]naphthyridine-2-carboxamide], for which the IC50 in the assay on HCT116 MTAP null cells was 43 nM; in the assay with HCT116 WT cells, 444 nM.

In the case of `CN(Cc1ccc(Br)nn1)C(=O)c1ccc2nc(N)c3c(c2c1)COC3` [Example 327, 4-amino-N-((6-bromo-3-pyridazinyl)methyl)-N-methyl-1,3-dihydrofuro[3,4-c]quinoline-8-carboxamide], the half-inhibitory concentration (IC50) with HCT116 MTAP null cells is 811 nM; in the assay with HCT116 WT cells, over 10000 nM.

As for `CN(Cc1ccc(C#N)cn1)C(=O)c1cc2c3c(c(N)nc2cc1Cl)COC3` [Example 472, 4-amino-7-chloro-N-((5-cyano-2-pyridinyl)methyl)-N-methyl-1,3-dihydrofuro[3,4-c]quinoline-8-carboxamide], the IC50 in the assay with HCT116 MTAP null cells stood at 267 nM; in the assay with HCT116 WT cells it was 14900 nM.

As to `CC[C@H](c1ccc(C(F)(F)F)cn1)N(C)C(=O)c1cc2c3c(c(N)nc2cn1)COC3` (single isomer, unassigned) [Example 849], the IC50 with HCT116 MTAP null cells turned out to be 879 nM; with HCT116 WT cells it was 24400 nM.

Turning to `C[C@@H]1OCc2c1c(N)nc1cnc(C(=O)N(Cc3ccc(C4CC4)cn3)C3CC3)cc21` [Example 417, (3S)-4-amino-N-cyclopropyl-N-((5-cyclopropyl-2-pyridinyl)methyl)-3-methyl-1,3-dihydrofuro[3,4-c][1,7]naphthyridine-8-carboxamide], the values for the IC50 in the assay on HCT116 MTAP null cells and with HCT116 WT cells were 5610 nM and 17600 nM, respectively.

On to `C[C@H](CF)N(Cc1ccc(C#N)cn1)C(=O)c1ccc2nc(N)c3c(c2c1)COC3` (single isomer, unassigned) [Example 577], for which the 50% inhibitory concentration (IC50) in the assay on HCT116 MTAP null cells is 3260 nM; in the assay on HCT116 WT cells, over 10000 nM. Besides, the “potency of enantiomer relative to the other enantiomer, measured by IC50 in HCT116 MTAP null cell viability assay” value in the assay with HCT116 MTAP null cells (HCT116 MTAP null, comparison of the two SFC-separated enantiomers) was “more potent”.

Consider `CN(Cc1ccc(C(F)(F)F)cn1)C(=O)c1cc2c(cc1Cl)nc(N)c1cnn(C)c12` [Example 791, 4-amino-7-chloro-N,1-dimethyl-N-((5-(trifluoromethyl)-2-pyridinyl)methyl)-1H-pyrazolo[4,3-c]quinoline-8-carboxamide], for which the results for the IC50 in the assay on HCT116 MTAP null cells and with HCT116 WT cells were 11 nM and 341 nM, respectively.

As for `CCN(Cc1ccc(C(F)(F)F)nn1)C(=O)c1ccc2nc(N)c3c(c2c1)CO[C@@H]3C` [Example 551, (3R)-4-amino-N-ethyl-3-methyl-N-((6-(trifluoromethyl)-3-pyridazinyl)methyl)-1,3-dihydrofuro[3,4-c]quinoline-8-carboxamide], the half-inhibitory concentration (IC50) was 125 nM in the assay on HCT116 MTAP null cells and 5570 nM in the assay on HCT116 WT cells.

For the compound `CC(C)N(Cc1ccc(C(F)(F)F)cn1)C(=O)c1cc2c(cc1F)nc(N)c1cnn(C)c12` [Example 805, 4-amino-7-fluoro-1-methyl-N-(2-propanyl)-N-((5-(trifluoromethyl)-2-pyridinyl)methyl)-1H-pyrazolo[4,3-c]quinoline-8-carboxamide], the figures for the IC50 in the assay on HCT116 MTAP null cells and with HCT116 WT cells were 8 nM and 121 nM, respectively.

Take `CC1OCc2c1c(N)nc1ccc(C(=O)N(Cc3ccc(C(F)(F)F)cn3)Cc3cnc(N)s3)cc21` (stereo not shown) [Example 918, 4-amino-N-((2-aminothiazol-5-yl)methyl)-3-methyl-N-((5-(trifluoromethyl)pyridin-2-yl)methyl)-1,3-dihydrofuro[3,4-c]quinoline-8-carboxamide]: the 50% inhibitory concentration (IC50) is 54 nM with HCT116 MTAP null cells and over 1000 nM in the assay with HCT116 WT cells.

With `CN(Cc1ccc(S(F)(F)(F)(F)F)cc1)C(=O)c1ccc2nc(N)c3cnn(C)c3c2c1` [Example 573, 4-amino-N,1-dimethyl-N-(4-(pentafluoro-lambda~6~- sulfanyl)benzyl)-1H-pyrazolo[4,3-c]quinoline-8-carboxamide], the results for the IC50 with HCT116 MTAP null cells and in the assay on HCT116 WT cells were 85 nM and 3730 nM, respectively.

In the case of `CCN(C(=O)c1ccc2nc(N)c3c(c2c1)CO[C@@H]3C)[C@@H](C)c1ccc(C#N)cn1` (single isomer, unassigned) [Example 843], the IC50 in the assay on HCT116 MTAP null cells is 3360 nM; in the assay on HCT116 WT cells, over 50000 nM.

Take `CN(Cc1ccc(C(F)(F)C(F)(F)F)cc1)C(=O)c1cc2c(cn1)nc(N)c1cnn(C)c12` [Example 562, 4-amino-N,1-dimethyl-N-(4-(pentafluoroethyl)benzyl)-1H-pyrazolo[4,3-c][1,7]naphthyridine-8-carboxamide]: the values for the IC50 in the assay on HCT116 MTAP null cells and in the assay on HCT116 WT cells were 86 nM and 3530 nM, respectively.

For the compound `CN(CC(F)(F)c1ccc(Cl)cn1)C(=O)c1ccc2nc(N)c3cnn(C)c3c2c1` [Example 535, 4-amino-N-(2-(5-chloro-2-pyridinyl)-2,2-difluoroethyl)-N,1-dimethyl-1H-pyrazolo[4,3-c]quinoline-8-carboxamide], the IC50 in the assay on HCT116 MTAP null cells is 860 nM; in the assay with HCT116 WT cells it was 6990 nM.

As for `C[C@H](c1ncccn1)N(Cc1ccc(C(F)(F)F)cn1)C(=O)c1cc2c3c(c(N)nc2cn1)COC3` [Example 621, 4-amino-N-((1R)-1-(2-pyrimidinyl)ethyl)-N-((5-(trifluoromethyl)-2-pyridinyl)methyl)-1,3-dihydrofuro[3,4-c][1,7]naphthyridine-8-carboxamide], the figures for the IC50 in the assay with HCT116 MTAP null cells and in the assay on HCT116 WT cells were 108 nM and 1230 nM, respectively.

In the case of `CN(Cc1ccc(C2CC2)cn1)C(=O)c1cc2c3c(c(N)nc2cc1F)COC3` [Example 372, 4-amino-N-((5-cyclopropyl-2-pyridinyl)methyl)-7-fluoro-N-methyl-1,3-dihydrofuro[3,4-c]quinoline-8-carboxamide], the half-maximal inhibitory concentration (IC50) in the assay with HCT116 MTAP null cells came out at 110 nM; with HCT116 WT cells, 5610 nM.

`C[C@H](c1ccc(C(F)(F)F)nn1)N(C(=O)c1cc2c(cc1F)nc(N)c1cnn(C)c12)C1CC1` (single isomer, unassigned) [Example 878]: the half-inhibitory concentration (IC50) with HCT116 MTAP null cells was 10 nM; in the assay with HCT116 WT cells, 709 nM.

`CC(C)N(Cc1ccc(OC(F)(F)F)cn1)C(=O)c1ccc2nc(N)c3c(c2c1)CO[C@@H]3C` [Example 465, (3R)-4-amino-3-methyl-N-(2-propanyl)-N-((5-(trifluoromethoxy)-2-pyridinyl)methyl)-1,3-dihydrofuro[3,4-c]quinoline-8-carboxamide]: the results for the IC50 with HCT116 MTAP null cells and in the assay on HCT116 WT cells were 31 nM and 1230 nM, respectively.

Regarding `CC(CF)N(Cc1ccc(C#N)cn1)C(=O)c1cc2c3c(c(N)nc2cn1)COC3` (racemic) [Example 687, 4-amino-N-((5-cyano-2-pyridinyl)methyl)-N-((2R)-1-fluoro-2-propanyl)-1,3-dihydrofuro[3,4-c][1,7]naphthyridine-8-carboxamide and 4-amino-N-((5-cyano-2-pyridinyl)methyl)-N-((2S)-1-fluoro-2-propanyl)-1,3-dihydrofuro[3,4-c][1,7]naphthyridine-8-carboxamide], the IC50 with HCT116 MTAP null cells and in the assay with HCT116 WT cells was over 10000 nM each time.

Regarding `Cn1ncc2c(N)nc3cc(Cl)c(C(=O)N(Cc4ccc(C(F)(F)F)cn4)C4CC4)cc3c21` [Example 795, 4-amino-7-chloro-N-cyclopropyl-1-methyl-N-((5-(trifluoromethyl)-2-pyridinyl)methyl)-1H-pyrazolo[4,3-c]quinoline-8-carboxamide], the values for the half-inhibitory concentration (IC50) in the assay with HCT116 MTAP null cells and with HCT116 WT cells were 8 nM and 379 nM, respectively.

As to `Cc1nn(C)c2c1c(N)nc1ccc(C(=O)N(Cc3ccc(C(F)(F)F)cn3)C(C)C)cc12` [Example 432, 4-amino-1,3-dimethyl-N-(2-propanyl)-N-((5-(trifluoromethyl)-2-pyridinyl)methyl)-1H-pyrazolo[4,3-c]quinoline-8-carboxamide], the values for the IC50 in the assay with HCT116 MTAP null cells and with HCT116 WT cells were 203 nM and 6390 nM, respectively.

Consider `CC(C)N(Cc1ccc(C2CC2)nc1)C(=O)c1cc2c3c(c(N)nc2cn1)[C@H](C)OC3` [Example 403, (3S)-4-amino-N-((6-cyclopropyl-3-pyridinyl)methyl)-3-methyl-N-(2-propanyl)-1,3-dihydrofuro[3,4-c][1,7]naphthyridine-8-carboxamide], for which the figures for the IC50 in the assay on HCT116 MTAP null cells and in the assay with HCT116 WT cells were at least 10000 nM and over 10000 nM, respectively.

`CN(Cc1ccc(C(F)(F)C(F)(F)F)cc1)C(=O)c1cc2c(cc1F)nc(N)c1cnn(C)c12` [Example 563, 4-amino-7-fluoro-N,1-dimethyl-N-(4-(pentafluoroethyl)benzyl)-1H-pyrazolo[4,3-c]quinoline-8-carboxamide]: the concentration for half-maximal inhibition (IC50) in the assay with HCT116 MTAP null cells is 28 nM; in the assay with HCT116 WT cells it was 2080 nM.

For the compound `C[C@@H]1OCc2c1c(N)nc1cnc(C(=O)N(Cc3ccc(C(F)(F)F)cn3)C34CC(C3)C4)cc21` [Example 309, (3S)-4-amino-N-(bicyclo[1.1.1]pentan-1-yl)-3-methyl-N-((5-(trifluoromethyl)-2-pyridinyl)methyl)-1,3-dihydrofuro[3,4-c][1,7]naphthyridine-8-carboxamide], the IC50 is 4000 nM in the assay with HCT116 MTAP null cells and over 10000 nM with HCT116 WT cells.
